In patent US20230085307A1, “PYRIDAZINONE COMPOUND AND HERBICIDE” (NISSAN CHEMICAL CORPORATION, priority 2019, published 2023):

Key:
[1] = system: false cleavers; assay: Test Example 4: herbicidal effect by soil treatment (Table 19, symbol Q); format: in vivo, false cleavers (Galium spurium); conditions: amount of applied herbicide 320 g/ha
In short: (§1)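 Seeds were sown in sterilized diluvial soil and covered with about 1.5 cm of soil. An emulsion formulation diluted with water to a predetermined herbicide amount was sprayed evenly onto the soil surface. Plants grew in a greenhouse at 25° C. to 30° C., and the effect was scored three weeks after application using criteria from an earlier test.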

[2] = system: lambsquarters; assay: Test Example 5: herbicidal effect by foliage application, plastic box (Table 20, symbol O); format: in vivo, lambsquarters (Chenopodium album); conditions: foliage application, AAH 320 g/ha, three weeks after application
In short: (§2)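 Plants sown in sterilized diluvial soil and grown 14 days in a greenhouse at 25° C to 30° C, then sprayed on the foliage with the compound's emulsion diluted in water to a predetermined herbicide amount. Injury to weeds and crops scored three weeks after application on a visual rating scale.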

[3] = system: Chinese sprangletop; assay: Test Example 3: herbicidal effect by foliage application, Wagner pot (Table 18, symbol D); format: in vivo, chinese sprangletop (Leptochloa chinensis); conditions: 320 g/ha
In short: (§3)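 Plants were sown in alluvial soil held under 0.1–0.5 cm standing water and grown 14 days in a greenhouse at 25–30 °C. An emulsifiable formulation, water-diluted to the set dose, was then sprayed onto the foliage, and effects were scored three weeks later using previously defined criteria.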

[4] = system: persian speedwell; assay: Test Example 4: herbicidal effect by soil treatment (Table 19, symbol R); format: in vivo, Persian speedwell (Veronica persica); conditions: amount of applied herbicide 320 g/ha
In short: as §1

[5] = system: chickweed; assay: Test Example 5: herbicidal effect by foliage application, plastic box (Table 20, symbol P); format: in vivo, common chickweed (Stellaria media); conditions: foliage application, AAH 320 g/ha, three weeks after application
In short: as §2

[6] = system: lambsquarters; assay: Test Example 4: herbicidal effect by soil treatment (Table 19, symbol O); format: in vivo, lambsquarters (Chenopodium album); conditions: amount of applied herbicide 320 g/ha
In short: as §1

[7] = system: persian speedwell; assay: Test Example 5: herbicidal effect by foliage application, plastic box (Table 20, symbol R); format: in vivo, Persian speedwell (Veronica persica); conditions: foliage application, AAH 320 g/ha, three weeks after application
In short: as §2

[8] = system: southern crabgrass; assay: Test Example 5: herbicidal effect by foliage application, plastic box (Table 20, symbol F); format: in vivo, southern crabgrass (Digitaria ciliaris); conditions: foliage application, AAH 320 g/ha, three weeks after application
In short: as §2

[9] = system: velvetleaf; assay: Test Example 4: herbicidal effect by soil treatment (Table 19, symbol M); format: in vivo, velvetleaf (Abutilon theophrasti); conditions: amount of applied herbicide 320 g/ha
In short: as §1

[10] = system: windgrass; assay: Test Example 5: herbicidal effect by foliage application, plastic box (Table 20, symbol L); format: in vivo, windgrass (Apera spica-venti); conditions: foliage application, AAH 320 g/ha, three weeks after application
In short: as §2

[11] = system: rapeseed; assay: Test Example 4: effect on crop by soil treatment (Table 19, symbol g); format: in vivo; conditions: amount of applied herbicide 320 g/ha
From the text: [Test Example 4] Herbicidal Effect Test by Soil Treatment
(§4) Sterilized diluvial soil was placed in a plastic box having a length of 21 cm, a width of 13 cm, and a depth of 7 cm. The seeds of each of southern crabgrass, green foxtail, barnyard grass, wild oat, blackgrass, Italian ryegrass, windgrass, velvetleaf, redroot pigweed, lambsquarters, chickweed, false cleavers, persian speedwell, corn, soybean, rice, wheat, beet, and rapeseed were sowed in a spot-like manner and covered with the soil having a thickness of about 1.5 cm. Subsequently, the emulsion agent of the compound of the present invention prepared according to Formulation Example 2 was diluted with water so as to achieve a predetermined herbicide amount, and the diluted emulsion agent was uniformly applied to the surface of the soil with a small-sized spray. The plastic box was placed in a greenhouse at 25° C. to 30° C. for growth of the plants. Three weeks after the herbicide application, the effect of the herbicide on each plant was evaluated according to the criteria of Test Example 1.

[12] = system: soybean; assay: Test Example 5: effect on crop by foliage application, plastic box (Table 20, symbol d); format: in vivo; conditions: AAH 320 g/ha, three weeks after application
From the text: (§5) [Test Example 5] Herbicidal Effect Test by Foliage Application
as §4, with “Thereafter, the plants were grown in a greenhouse at 25° C. to 30° C. After 14-day growth of the plants,” for “Subsequently,”, “a foliage part” for “the surface of the soil”, “spray.” for “spray. The plastic box was placed in a greenhouse at 25° C. to 30° C. for growth of the plants.”

[13] = system: wheat; assay: Test Example 4: effect on crop by soil treatment (Table 19, symbol e); format: in vivo; conditions: amount of applied herbicide 320 g/ha
In short: as §1

[14] = system: directly sowed rice; assay: Test Example 3: effect on crop by foliage application, Wagner pot (Table 18, symbol b); format: in vivo; conditions: 320 g/ha
Procedure: [Test Example 3] Herbicidal Effect Test by Foliage Application After alluvial soil was placed into 1/10000 are of Wagner pot, water was poured and mixed to form a submerged condition having a water depth of 0.1 cm to 0.5 cm. Seeds of barnyard grass, Chinese sprangletop, rice flat sedge, and rice were sowed and the pot was placed in a greenhouse at 25° C. to 30° C. for growth of the plants. After 14-day growth of the plants, the emulsion agent of the compound of the present invention prepared according to Formulation Example 2 was diluted with water so as to achieve a predetermined herbicide amount, and the diluted emulsion agent was uniformly applied to a foliage part with a small-sized spray. Three weeks after the herbicide application, the effect of the herbicide on each plant was evaluated according to the criteria of Test Example 1.

[15] = system: wheat; assay: Test Example 5: effect on crop by foliage application, plastic box (Table 20, symbol e); format: in vivo; conditions: AAH 320 g/ha, three weeks after application
From the text: as §5
as §4, with “Thereafter, the plants were grown in a greenhouse at 25° C. to 30° C. After 14-day growth of the plants,” for “Subsequently,”, “a foliage part” for “the surface of the soil”, “spray.” for “spray. The plastic box was placed in a greenhouse at 25° C. to 30° C. for growth of the plants.”

[16] = system: redroot pigweed; assay: Test Example 4: herbicidal effect by soil treatment (Table 19, symbol N); format: in vivo, redroot pigweed (Amaranthus retroflexus); conditions: amount of applied herbicide 320 g/ha
In short: as §1

[17] = system: redroot pigweed; assay: Test Example 5: herbicidal effect by foliage application, plastic box (Table 20, symbol N); format: in vivo, redroot pigweed (Amaranthus retroflexus); conditions: foliage application, AAH 320 g/ha, three weeks after application
In short: as §2

[18] = system: barnyard grass; assay: Test Example 3: herbicidal effect by foliage application, Wagner pot (Table 18, symbol H); format: in vivo, barnyard grass (Echinochloa crus-galli); conditions: 320 g/ha
In short: as §3

[19] = system: blackgrass; assay: Test Example 5: herbicidal effect by foliage application, plastic box (Table 20, symbol J); format: in vivo, blackgrass (Alopecurus myosuroides); conditions: foliage application, AAH 320 g/ha, three weeks after application
In short: as §2

[20] = system: wild oat; assay: Test Example 5: herbicidal effect by foliage application, plastic box (Table 20, symbol I); format: in vivo, wild oat (Avena fatua); conditions: foliage application, AAH 320 g/ha, three weeks after application
In short: as §2

## Cc1nn(C)c(=O)c(-c2c(-n3cc(Cl)cn3)sc3ccccc23)c1O [Compound No. 1-097, 5-hydroxy-2,6-dimethyl-4-(2-(4-chloro-1H-pyrazol-1-yl)benzo[b]thiophen-3-yl)pyridazin-3(2H)-one]
[1]
  herbicidal effect rating, Q: false cleavers: 0 (Herbicidal rate of 5% or less (almost no effect))
[2]
  O: lambsquarters, herbicidal effect: 0 (Herbicidal rate of 5% or less (almost no effect))
[3]
  herbicidal effect on D (Chinese sprangletop), rating 0-5: 0 (Herbicidal rate of 5% or less (almost no effect))
[4]
  herbicidal effect rating, R: persian speedwell: 0 (Herbicidal rate of 5% or less (almost no effect))
[5]
  P: chickweed, herbicidal effect: 5 (Herbicidal rate of 90% or more (almost completely withered))
[6]
  herbicidal effect rating, O: lambsquarters: 4 (Herbicidal rate of 70% or more and less than 90%)
[7]
  R: persian speedwell, herbicidal effect: 0 (Herbicidal rate of 5% or less (almost no effect))
[8]
  F: southern crabgrass, herbicidal effect: 0 (Herbicidal rate of 5% or less (almost no effect))
[9]
  herbicidal effect rating, M: velvetleaf: 1 (Herbicidal rate of 5% or more and less than 20%)
[10]
  L: windgrass, herbicidal effect: 0 (Herbicidal rate of 5% or less (almost no effect))
[11]
  effect rating on crop, g: rapeseed: 0 (Herbicidal rate of 5% or less (almost no effect))
[12]
  d: soybean, effect on crop: 0 (Herbicidal rate of 5% or less (almost no effect))
[13]
  effect rating on crop, e: wheat: 0 (Herbicidal rate of 5% or less (almost no effect))
[14]
  effect on crop b (directly sowed rice), rating 0-5: 0 (Herbicidal rate of 5% or less (almost no effect))
[15]
  e: wheat, effect on crop: 0 (Herbicidal rate of 5% or less (almost no effect))
[16]
  herbicidal effect rating, N: redroot pigweed: 1 (Herbicidal rate of 5% or more and less than 20%)
[17]
  N: redroot pigweed, herbicidal effect: 3 (Herbicidal rate of 40% or more and less than 70%)
[18]
  herbicidal effect on H (barnyard grass), rating 0-5: 0 (Herbicidal rate of 5% or less (almost no effect))
[19]
  J: blackgrass, herbicidal effect: 0 (Herbicidal rate of 5% or less (almost no effect))
[20]
  I: wild oat, herbicidal effect: 0 (Herbicidal rate of 5% or less (almost no effect))
